How the values were obtained:
[1] = [M+H]+; instrument: TW
[2] = instrument: DT, single field, calibrated with Agilent tune mix (Agilent)
[3] = instrument: DT, stepped-field

CC(C)(C)[C@H](O)[C@H](Cc1ccc(Cl)cc1)n1cncn1 (racemic) [Paclobutrazol]
collision cross section (N2) [1]: 168.73 Å²

O=C\1\C=C/[C@]3(/C(=C/1)CC[C@H]4[C@@H]2CCC(=O)[C@]2(CC[C@H]34)C)C [1,4-androstadiene-3,17-dione]
collision cross section (N2) [1]: 166.5 Å²

C[C@]12Cc3cn[nH]c3C[C@@H]1CC[C@@H]1[C@@H]2CC[C@@]2(C)[C@H]1C[C@H](O)[C@]2(C)O [16B-hydroxystanozolol]
collision cross section (N2) [1]: 192.1 Å²

C[C@]12CCC(=O)C=C1CC[C@@H]1[C@@H]2CC[C@@]2(C)[C@H]1CC[C@]2(C)O [17a-Methyltestosterone]
collision cross section (N2) [1]: 173.7 Å²

CCCCCCCCCCCCC=CC[C@@H](O)[C@H](CO[C@@H]1O[C@H](CO)[C@@H](O)C(O)C1O)NC(=O)CC=CCCCCCCCCCCCCCC (stereo partly drawn) [GlcCer(36:2)]
collision cross section (N2) ([2]; [M+H]+): 283.4 Å²
collision cross section (N2) ([3]; [M+Na]+): 282.6 Å²

CCCCCCCCCCCCCCCCCCCCCCCC(=O)N[C@@H](CO[C@@H]1O[C@H](CO)[C@@H](O)C(O)C1O)[C@H](O)CCCCCCCCCCCCCCC (stereo partly drawn) [GlcCer(42:0)]
collision cross section (N2) ([2]; [M+HCOO]-): 300.8 Å²
collision cross section (N2) ([3]; [M+Na]+): 308.2 Å²

CCCCCCCCCCCCC=CC[C@@H](O)[C@H](CO[C@@H]1O[C@H](CO)[C@@H](O)C(O)C1O)NC(=O)CC=CCCCCCCCCCCCCCCCCCCCC (stereo partly drawn) [GlcCer(42:2)]
collision cross section (N2) ([2]; [M+HCOO]-): 298.5 Å²
collision cross section (N2) ([2]; [M+H]+): 300.9 Å²
collision cross section (N2) ([2]; [M+Na]+): 300.4 Å²
collision cross section (N2) ([3]; [M+Na]+): 305.2 Å²

CCC(C)[C@H](NC(=O)[C@@H](NC(=O)[C@@H](N)CCSC)C(C)C)C(=O)N[C@@H](CCCNC(=N)N)C(=O)O (stereo partly drawn) [MVIR]
collision cross section (N2) ([3]; [M+H]+): 228.7 Å²

N=C(N)NCCC[C@H](NC(=O)[C@H](CC(N)=O)NC(=O)[C@H](Cc1ccccc1)NC(=O)[C@@H](N)CC(N)=O)C(=O)O [NFNR]
collision cross section (N2) ([3]; [M+H]+): 225 Å²

CCCCC/C=C\C/C=C\C/C=C\CCCCCCC(=O)O[C@H](COC(=O)CCCCCCCCCCCC)COP(=O)([O-])OCC[N+](C)(C)C [PC(33:3)]
collision cross section (N2) ([3]; [M+K]+): 290.1 Å²

CCCC/C=C\C/C=C\CCCCCCCC(=O)O[C@H](COC(=O)CCCCCCC/C=C\CCCCCCCC)COP(=O)([O-])OCC[N+](C)(C)C [PC(35:3)]
collision cross section (N2) ([2]; [M+H]+): 284.2 Å²
collision cross section (N2) ([3]; [M+K]+): 296.1 Å²

CC/C=C\C/C=C\C/C=C\C/C=C\C/C=C\C/C=C\CCC(=O)O[C@H](COC(=O)CCCCCCCCCCCC)COP(=O)([O-])OCC[N+](C)(C)C [PC(35:6)]
collision cross section (N2) ([3]; [M+K]+): 291.8 Å²

CC/C=C\C/C=C\C/C=C\C/C=C\C/C=C\C/C=C\CCC(=O)O[C@H](COC(=O)CCCCCCC/C=C\CCCC)COP(=O)([O-])OCC[N+](C)(C)C [PC(36:7)]
collision cross section (N2) ([3]; [M+Na]+): 292.5 Å²

CC/C=C\C/C=C\C/C=C\C/C=C\C/C=C\C/C=C\CCC(=O)O[C@H](COC(=O)CCCCCCCCCCCCCC)COP(=O)([O-])OCC[N+](C)(C)C [PC(37:6)]
collision cross section (N2) ([3]; [M+K]+): 298.2 Å²

CC/C=C\C/C=C\C/C=C\C/C=C\C/C=C\CCCC(=O)O[C@H](COC(=O)CCCCCCC/C=C\CCCCCCCCC)COP(=O)([O-])OCC[N+](C)(C)C [PC(39:6)]
collision cross section (N2) ([3]; [M+K]+): 303.4 Å²

CC/C=C\C/C=C\C/C=C\C/C=C\C/C=C\C/C=C\CCC(=O)OC[C@H](COP(=O)([O-])OCC[N+](C)(C)C)OC(=O)CCCCCCC/C=C\CCCCCCC [PC(39:7)]
collision cross section (N2) ([3]; [M+K]+): 303.8 Å²

CC=CCC=CCC=CCC=CCC=CCC=CCC(=O)OC[C@H](COP(=O)(O)OCC[N+](C)(C)C)OC(=O)CC=CCC=CCC=CCC=CCC=CCC=CC [PC(40:12)]
collision cross section (N2) ([3]; [M+Na]+): 300.6 Å²

CCCCCCCCCC/C=C\CCCCCCCCCC(=O)O[C@H](COC(=O)CCCCCCCCCCCC)COP(=O)(O)OCCN [PE(35:1)]
collision cross section (N2) ([2]; [M+H]+): 276.6 Å²
collision cross section (N2) ([3]; [M+K]+): 283.6 Å²
collision cross section (N2) ([3]; [M+Na]+): 282.9 Å²

CCCCCCCCCCCCCCCCCCCC(=O)O[C@H](COC(=O)CCCCCCCCCCCCCCCC)COP(=O)(O)OCCN [PE(37:0)]
collision cross section (N2) ([3]; [M+K]+): 297.8 Å²

CCCCCCCCC/C=C\CCCCCCCC(=O)O[C@H](COC(=O)CCCCCCCCCCCCCCCCC)COP(=O)(O)OCCN [PE(37:1)]
collision cross section (N2) ([3]; [M+K]+): 295 Å²
collision cross section (N2) ([3]; [M+Na]+): 292.2 Å²

CCCCC/C=C\C/C=C\CCCCCCCC(=O)O[C@H](COC(=O)CCCCCCCCCCCCCCCCCC)COP(=O)(O)OCCN [PE(37:2)]
collision cross section (N2) ([3]; [M+K]+): 289.8 Å²
collision cross section (N2) ([3]; [M+Na]+): 288.2 Å²

CCCCC/C=C\C/C=C\CCCCCCCCCC(=O)O[C@H](COC(=O)CCCCCCC/C=C\CCCCCCC)COP(=O)(O)OCCN [PE(37:3)]
collision cross section (N2) ([3]; [M+K]+): 286.5 Å²
collision cross section (N2) ([3]; [M+Na]+): 286.2 Å²

CCCC/C=C\C/C=C\CCCCCCCC(=O)OC[C@H](COP(=O)(O)OCCN)OC(=O)CCCCC/C=C\C/C=C\C/C=C\C/C=C\CCCCC [PE(39:6)]
collision cross section (N2) ([3]; [M+Na]+): 286.4 Å²

CC/C=C\C/C=C\C/C=C\C/C=C\C/C=C\C/C=C\CCC(=O)OC[C@H](COP(=O)(O)OCCN)OC(=O)CC/C=C\C/C=C\C/C=C\C/C=C\C/C=C\C/C=C\CC [PE(44:12)]
collision cross section (N2) ([3]; [M+Na]+): 299.7 Å²

CCCCC/C=C\C/C=C\CCCCCCCC(=O)O[C@H](COCCCCCCCCCCCCCCCC)COP(=O)(O)OCCN [PE(o34:2)]
collision cross section (N2) ([3]; [M+Na]+): 279.7 Å²

CCCCC/C=C\C/C=C\C/C=C\C/C=C\CCCC(=O)O[C@H](COC(=O)CCCCCCCCCCCCCCCC)COP(=O)(O)OC[C@H](N)C(=O)O [PS(37:4)]
collision cross section (N2) ([3]; [M+Na]+): 295 Å²

CCCCC/C=C\C/C=C\C/C=C\C/C=C\CCCC(=O)OC[C@H](COP(=O)(O)OC[C@H](N)C(=O)O)OC(=O)CCCC/C=C\C/C=C\C/C=C\CCCCC [PS(38:7)]
collision cross section (N2) ([3]; [M+Na]+): 290.2 Å²

CC/C=C\C/C=C\C/C=C\C/C=C\C/C=C\C/C=C\CCC(=O)OC[C@H](COP(=O)(O)OC[C@H](N)C(=O)O)OC(=O)CCCCCCC/C=C\CCCCCCCC [PS(40:7)]
collision cross section (N2) ([3]; [M+Na]+): 295.6 Å²

CC/C=C\C/C=C\C/C=C\C/C=C\C/C=C\C/C=C\CCC(=O)O[C@H](COC(=O)CCCCCCCCCCCCCCCCCC)COP(=O)(O)OC[C@H](N)C(=O)O [PS(41:6)]
collision cross section (N2) ([3]; [M+Na]+): 303.3 Å²

CCCCC/C=C\C/C=C\C/C=C\C/C=C\CCCCCC(=O)O[C@H](COC(=O)CCCCCCCCC/C=C\CCCCCCCC)COP(=O)(O)OC[C@H](N)C(=O)O [PS(42:5)]
collision cross section (N2) ([3]; [M+Na]+): 307 Å²

CC/C=C\C/C=C\C/C=C\C/C=C\C/C=C\C/C=C\CCC(=O)O[C@H](COC(=O)CCCCCC/C=C\C/C=C\C/C=C\CCCCC)COP(=O)(O)OC[C@H](N)C(=O)O [PS(42:9)]
collision cross section (N2) ([3]; [M+Na]+): 302 Å²

CCCCCCCC=CCC=CCC=CCC=CCC=CCC(=O)OC[C@H](COP(=O)(O)OC[C@H](N)C(=O)O)OC(=O)CC=CCC=CCC=CCC=CCC=CCCCCCCC [PS(46:10)]
collision cross section (N2) ([3]; [M+K]+): 306.3 Å²
collision cross section (N2) ([3]; [M+Na]+): 309.2 Å²

CCCCC=CCC=CCC=CCC=CCC=CCC=CCC(=O)OC[C@H](COP(=O)(O)OC[C@H](N)C(=O)O)OC(=O)CC=CCC=CCC=CCC=CCC=CCC=CCCCC [PS(46:12)]
collision cross section (N2) ([3]; [M+Na]+): 309.5 Å²

CCCCCC=CCC=CCC=CCC=CCC=CCC=CCC(=O)OC[C@H](COP(=O)(O)OC[C@H](N)C(=O)O)OC(=O)CC=CCC=CCC=CCC=CCC=CCC=CCCCCC [PS(48:12)]
collision cross section (N2) ([3]; [M+K]+): 313.6 Å²

CCC=CCC=CCC=CCC=CCC=CCC=CCC=CCC(=O)OC[C@H](COP(=O)(O)OC[C@H](N)C(=O)O)OC(=O)CC=CCC=CCC=CCC=CCC=CCC=CCC=CCC [PS(48:14)]
collision cross section (N2) ([3]; [M+K]+): 311 Å²
collision cross section (N2) ([3]; [M+Na]+): 312 Å²

CCC(C)[C@H](NC(=O)[C@@H](N)CCC(N)=O)C(=O)N[C@@H](CO)C(=O)N[C@H](C(=O)N[C@@H](CCCNC(=N)N)C(=O)O)C(C)C (stereo partly drawn) [QISVR]
collision cross section (N2) ([3]; [M+H]+): 241.4 Å²

CCC(C)[C@H](NC(=O)[C@H](CO)NC(=O)[C@@H](NC(=O)[C@@H](N)CO)C(C)CC)C(=O)N[C@H](C(=O)NCC(=O)N[C@@H](CO)C(=O)N[C@@H](Cc1ccc(O)cc1)C(=O)N[C@H](C(=O)NCC(=O)N[C@@H](CC(N)=O)C(=O)N[C@@H](CCCNC(=N)N)C(=O)O)C(C)C)C(C)C (stereo partly drawn) [SISIVGSYVGNR]
collision cross section (N2) ([3]; [M+H]+): 349.1 Å²

CCCCCCCCCCCCC=CC[C@@H](O)[C@H](COP(=O)([O-])OCC[N+](C)(C)C)NC(=O)CC=CCCCCCCCCCCCCCCCCCCCCCC [SM(44:2)]
collision cross section (N2) ([3]; [M+Na]+): 313.5 Å²

CC(C)[C@H](NC(=O)[C@@H](N)CO)C(=O)N[C@@H](Cc1ccc(O)cc1)C(=O)N[C@@H](CC(=O)O)C(=O)N[C@@H](CO)C(=O)N[C@@H](CCCNC(=N)N)C(=O)O [SVYDSR]
collision cross section (N2) ([3]; [M+H]+): 258.4 Å²

CCCCCCC[N+](CCCCCCC)(CCCCCCC)CCCCCCC [TAA7]
collision cross section (N2) ([3]; [M]+): 236.4 Å²

CCCCCCCCCCCCCCCCCC[N+](CCCCCCCCCCCCCCCCCC)(CCCCCCCCCCCCCCCCCC)CCCCCCCCCCCCCCCCCC [TAA18]
collision cross section (N2) ([3]; [M]+): 379 Å²

CC(C)C[C@H](NC(=O)[C@H](CO)NC(=O)[C@H](C)NC(=O)[C@@H](N)C(C)C)C(=O)N[C@@H](CCCNC(=N)N)C(=O)O [VASLR]
collision cross section (N2) ([3]; [M+H]+): 232.5 Å²

CC(C)C[C@H](NC(=O)[C@H](CC(=O)O)NC(=O)[C@@H](NC(=O)[C@H](CC(C)C)NC(=O)[C@@H](N)C(C)C)C(C)C)C(=O)N[C@@H](CCC(=O)O)C(=O)N[C@@H](CCCNC(=N)N)C(=O)O [VLVDLER]
collision cross section (N2) ([3]; [M+H]+): 285.7 Å²

CCC(C)C(NC(=O)C(N)Cc1c[nH]c2ccccc12)C(=O)NC(CCCN=C(N)N)C(=O)O (stereo not drawn) [WIR]
collision cross section (N2) ([3]; [M+H]+): 215.4 Å²

CC(C)C[C@H](NC(=O)[C@H](CC(=O)O)NC(=O)[C@@H](N)Cc1ccc(O)cc1)C(=O)N[C@@H](CC(=O)O)C(=O)N[C@@H](Cc1ccccc1)C(=O)N[C@@H](CCCCN)C(=O)O [YDLDFK]
collision cross section (N2) ([3]; [M+H]+): 272.4 Å²
